22 molecules from ChEMBL document CHEMBL5042549, “Discovery of Inhibitors of the Lipopolysaccharide Transporter MsbA: From a Screening Hit to Potent Wild-Type Gram-Negative Activity” (J Med Chem, 2022) can be followed below.

SMILES strings stand for the structures.

The subject of one series is Escherichia coli. In words: Antibacterial activity against wild type Escherichia coli CFT073 (ATCC 700928) assessed as bacterial growth by broth microdilution assay. Type of series: functional.
Conditions: not given
On to `Cc1cnn(C)c1[C@H](C)Oc1ccc2ncc(/C=C/C(=O)O)c(C3CC3)c2c1`, for which the MIC (as a rule, the lowest concentration found to suppress growth) was above 100 µM.
On to `C[C@H](Oc1cc(CC#N)c2ncc(/C=C/C(=O)O)c(C3CC3)c2c1)c1c(Cl)ccc(F)c1Cl`, for which the MIC turned out to be 79 µM.
Same read-out and setting: as for `C[C@H](Oc1ccc2ncc(/C=C/C(=O)O)c(O)c2c1)c1c(Cl)ccc(F)c1Cl`, the figure is above 100 µM; as for `C[C@H](Oc1ccc2c(c1)c(C1CC1)c(/C=C/C(=O)O)c[n+]2[O-])c1c(Cl)ccc(F)c1Cl`, above 100 µM.
`C[C@H](Oc1ccc2ncc(/C=C/C(N)=O)c(C3CC3)c2c1)c1c(Cl)ccc(F)c1Cl`: the MIC was above 100 µM.
Same read-out and setting: the figure for `C[C@H](Oc1ccc2ncc(CCC(=O)O)c(C3CC3)c2c1)c1c(Cl)ccc(F)c1Cl` is above 100 µM; for `C[C@H](Oc1ccc2ncc(/C=C/C(=O)O)c(C3CC3)c2c1)c1c(Cl)ccc(F)c1Cl` it is 79 µM; for `C[C@H](Oc1cc(CO)c2ncc(/C=C/C(=O)O)c(C3CC3)c2c1)c1c(Cl)ccc(F)c1Cl` it is above 100 µM.
Take `C[C@H](Oc1ccc2ncc(/C=C/C(=O)O)c(C(F)F)c2c1)c1c(Cl)ccc(F)c1Cl`: the MIC was 25 µM.
As to `C[C@H](Oc1ccc2ncc(/C=C/C(=O)O)c(N(C)C)c2c1)c1c(Cl)ccc(F)c1Cl`, the MIC was above 100 µM.
Take `C[C@H](Oc1cnc2cnc(/C=C/C(=O)O)c(C3CC3)c2c1)c1c(Cl)cccc1Cl`: the MIC was above 100 µM.
As for `C[C@H](Oc1ccc2ncc(/C=C/C(=O)O)c(C3CC3)c2c1)c1c(Cl)ccc(N)c1Cl`, the MIC worked out at 63 µM.
For the molecule `C[C@H](Oc1ccc2nc(OCCN)c(CCC(=O)O)c(C3CC3)c2c1)c1c(Cl)ccc(F)c1Cl`, the MIC was above 100 µM.
For the molecule `C[C@H](Oc1ccc2nnc(/C=C/C(=O)O)c(C3CC3)c2c1)c1c(Cl)ccc(F)c1Cl`, the MIC was above 100 µM.
On the same count and under the same terms, the figure for `C[C@H](Oc1cc(B(O)O)c2ncc(/C=C/C(=O)O)c(C3CC3)c2c1)c1c(Cl)ccc(F)c1Cl` is above 100 µM; for `C[C@H](Oc1ccc2c(c1)CN(CCC(=O)O)CC2)c1c(Cl)ccc(F)c1Cl` it is above 100 µM.
The same measure, in the same setting: as for `C[C@H](Oc1ccc2c(=O)nc(/C=C/C(=O)O)n(C3CC3)c2c1)c1c(Cl)ccc(F)c1Cl`, the figure is above 100 µM; as for `CC(C)Oc1ccc2ncc(/C=C/C(=O)O)c(C3CC3)c2c1`, above 100 µM.
On the same count and under the same terms, the figure for `C[C@H](Oc1ccc2ncc(O)c(C3CC3)c2c1)c1c(Cl)ccc(F)c1Cl` is above 100 µM; for `C[C@H](Oc1ccc2ncc(/C=C/C(=O)O)c(C3COC3)c2c1)c1c(Cl)ccc(F)c1Cl` it is above 100 µM.
For `C[C@H](Oc1ccc2ncc(/C=C/C(=O)O)c(CF)c2c1)c1c(Cl)ccc(F)c1Cl`, the MIC is above 100 µM.

Tested on in another series: not listed separately
In words: Lipophilicity, logD of compound by shake flask method. Type of series: physicochemical. The following applies: octanol/water.
Consider `Cc1cnn(C)c1[C@H](C)Oc1ccc2ncc(/C=C/C(=O)O)c(C3CC3)c2c1`, for which the logD – broadly, the decadic logarithm of the distribution of all forms, ionised or not, between an organic phase and buffer at a given pH – came to 0.9.
As to `C[C@H](Oc1cc(CC#N)c2ncc(/C=C/C(=O)O)c(C3CC3)c2c1)c1c(Cl)ccc(F)c1Cl`, the logD is 2.8.
On the same count and under the same terms, as for `C[C@H](Oc1ccc2ncc(/C=C/C(=O)O)c(O)c2c1)c1c(Cl)ccc(F)c1Cl`, the figure is 1.9; as for `C[C@H](Oc1ccc2c(c1)c(C1CC1)c(/C=C/C(=O)O)c[n+]2[O-])c1c(Cl)ccc(F)c1Cl`, 1.7; as for `C[C@H](Oc1ccc2ncc(/C=C/C(N)=O)c(C3CC3)c2c1)c1c(Cl)ccc(F)c1Cl`, above 5.5.
Molecule `C[C@H](Oc1ccc2ncc(CCC(=O)O)c(C3CC3)c2c1)c1c(Cl)ccc(F)c1Cl` showed a logD of 4.1.
`C[C@H](Oc1ccc2ncc(/C=C/C(=O)O)c(C3CC3)c2c1)c1c(Cl)ccc(F)c1Cl` gave a logD of 4.1.
The same measure, in the same setting: the figure for `C[C@H](Oc1cc(CO)c2ncc(/C=C/C(=O)O)c(C3CC3)c2c1)c1c(Cl)ccc(F)c1Cl` is 2.9; for `C[C@H](Oc1ccc2ncc(/C=C/C(=O)O)c(C(F)F)c2c1)c1c(Cl)ccc(F)c1Cl` it is 3.1.
Still for that read-out and setting: as for `C[C@H](Oc1ccc2ncc(/C=C/C(=O)O)c(N(C)C)c2c1)c1c(Cl)ccc(F)c1Cl`, the figure is 3.6; as for `C[C@H](Oc1ccc2ncc(/C=C/C(=O)O)c(C3CC3)c2c1)c1c(Cl)ccc(N)c1Cl`, 2.8.
As to `C[C@H](Oc1ccc2nc(OCCN)c(CCC(=O)O)c(C3CC3)c2c1)c1c(Cl)ccc(F)c1Cl`, the logD was 3.8.
`C[C@H](Oc1ccc2nnc(/C=C/C(=O)O)c(C3CC3)c2c1)c1c(Cl)ccc(F)c1Cl` displayed a logD of 3.2.
On the same count and under the same terms, as for `CC(Oc1ccc2ncc(/C=C/C(=O)O)cc2c1)C1CCCCC1` (configuration not stated), the figure is 3.

Tested on in a further series: not listed separately
In words: Inhibition of Escherichia coli MsbA preincubated for 10 mins followed by ATP addition and incubated for 1 hr by fluorescence polarization assay.
Conditions: not given
On to `Cc1cnn(C)c1[C@H](C)Oc1ccc2ncc(/C=C/C(=O)O)c(C3CC3)c2c1`, for which the IC50 (in general, the concentration that inhibits the measured activity by half) was above 10000 nM.
The same measure, in the same setting: the figure for `C[C@H](Oc1cc(CC#N)c2ncc(/C=C/C(=O)O)c(C3CC3)c2c1)c1c(Cl)ccc(F)c1Cl` is 20 nM.
On the same count and under the same terms, the figure for `C[C@H](Oc1ccc2ncc(/C=C/C(=O)O)c(O)c2c1)c1c(Cl)ccc(F)c1Cl` is 5000 nM; for `C[C@H](Oc1ccc2c(c1)c(C1CC1)c(/C=C/C(=O)O)c[n+]2[O-])c1c(Cl)ccc(F)c1Cl` it is 13 nM; for `C[C@H](Oc1ccc2ncc(/C=C/C(N)=O)c(C3CC3)c2c1)c1c(Cl)ccc(F)c1Cl` it is 7 nM.
Still for that read-out and setting: the figure for `C[C@H](Oc1ccc2ncc(CCC(=O)O)c(C3CC3)c2c1)c1c(Cl)ccc(F)c1Cl` is 7 nM.
Take `C[C@H](Oc1ccc2ncc(/C=C/C(=O)O)c(C3CC3)c2c1)c1c(Cl)ccc(F)c1Cl`: it took 4 nM to reach half-maximal inhibition (IC50).
The same measure, in the same setting: the figure for `C[C@H](Oc1cc(CO)c2ncc(/C=C/C(=O)O)c(C3CC3)c2c1)c1c(Cl)ccc(F)c1Cl` is 10 nM; for `C[C@H](Oc1ccc2ncc(/C=C/C(=O)O)c(C(F)F)c2c1)c1c(Cl)ccc(F)c1Cl` it is 8 nM.
Consider `C[C@H](Oc1ccc2ncc(/C=C/C(=O)O)c(N(C)C)c2c1)c1c(Cl)ccc(F)c1Cl`, for which the IC50 worked out at 290 nM.
On the same count and under the same terms, the figure for `C[C@H](Oc1cnc2cnc(/C=C/C(=O)O)c(C3CC3)c2c1)c1c(Cl)cccc1Cl` is 12 nM; for `C[C@H](Oc1ccc2ncc(/C=C/C(=O)O)c(C3CC3)c2c1)c1c(Cl)ccc(N)c1Cl` it is 14 nM; for `C[C@H](Oc1ccc2nc(OCCN)c(CCC(=O)O)c(C3CC3)c2c1)c1c(Cl)ccc(F)c1Cl` it is 32 nM.
For `C[C@H](Oc1ccc2nnc(/C=C/C(=O)O)c(C3CC3)c2c1)c1c(Cl)ccc(F)c1Cl`, 20 nM corresponded to half-maximal inhibition (IC50).
On the same count and under the same terms, as for `CC(Oc1ccc2ncc(/C=C/C(=O)O)cc2c1)C1CCCCC1` (configuration not stated), the figure is 39000 nM.
`C[C@H](Oc1cc(B(O)O)c2ncc(/C=C/C(=O)O)c(C3CC3)c2c1)c1c(Cl)ccc(F)c1Cl` had an IC50 of 150 nM.
On the same count and under the same terms, the figure for `C[C@H](Oc1ccc2c(c1)CN(CCC(=O)O)CC2)c1c(Cl)ccc(F)c1Cl` is above 50000 nM; for `C[C@H](Oc1ccc2c(=O)nc(/C=C/C(=O)O)n(C3CC3)c2c1)c1c(Cl)ccc(F)c1Cl` it is 7200 nM.
For the molecule `CC(C)Oc1ccc2ncc(/C=C/C(=O)O)c(C3CC3)c2c1`, the IC50 was above 10000 nM.
On the same count and under the same terms, the figure for `C[C@H](Oc1ccc2ncc(O)c(C3CC3)c2c1)c1c(Cl)ccc(F)c1Cl` is 42 nM; for `C[C@H](Oc1ccc2ncc(/C=C/C(=O)O)c(C3COC3)c2c1)c1c(Cl)ccc(F)c1Cl` it is 120 nM; for `C[C@H](Oc1ccc2ncc(/C=C/C(=O)O)c(CF)c2c1)c1c(Cl)ccc(F)c1Cl` it is 25 nM.
